Assay results reported in patent publication US10004701B2, “Methods and compositions for treating infection” (UNIVERSITY OF ROCHESTER, priority 2012, dated 2018).
Where a name gives a salt, the structure may show the parent alone. Read-outs that look alike come from different tables or passages of the source.

Columns and labels:
Assay in all cases: AK assay 384-well format, Prestwick library screening
K. pneumoniae = format: cell-based, Klebsiella pneumoniae; conditions: 50 μM final drug concentration; for fold induction at 50 µM: Klebsiella pneumoniae, 3 h
[1] = test system: S. aureus strain USA300-0114; format: cell-based, Staphylococcus aureus; conditions: 50 μM final drug concentration; for fold induction at 50 µM: Staphylococcus aureus, USA300, 3 h
[2] = test system: A. baumannii strain 98-37-09; format: cell-based, Acinetobacter baumannii; conditions: 50 μM final drug concentration; for fold induction at 50 µM: Acinetobacter baumannii, 983709, 3 h
E. cloacae = format: cell-based, Enterobacter cloacae; conditions: 50 μM final drug concentration; for fold induction at 50 µM: Enterobacter cloacae, 3 h
E. faecium = format: cell-based, Enterococcus faecium; conditions: 50 μM final drug concentration; for fold induction at 50 µM: Enterococcus faecium, 3 h
E. coli = format: cell-based, Escherichia coli; conditions: 50 μM final drug concentration; for fold induction at 50 µM: Escherichia coli, 3 h
P. aeruginosa = format: cell-based, Pseudomonas aeruginosa; conditions: 50 μM final drug concentration; for fold induction at 50 µM: Pseudomonas aeruginosa, 3 h
[3] = planktonic, cutoff for positive-scoring molecules 3-fold increase
[4] = planktonic, cutoff for positive-scoring molecules 3-fold increase, read-out: AK-based Prestwick Library Screening Results, K. pneumoniae (fold increase in extracellular AK activity)
[5] = planktonic, cutoff for positive-scoring molecules 3-fold increase, read-out: AK-based Prestwick Library Screening Results, S. aureus (fold increase in extracellular AK activity)
[6] = planktonic, cutoff for positive-scoring molecules 3-fold increase, read-out: AK-based Prestwick Library Screening Results, A. baumannii (fold increase in extracellular AK activity)
[7] = planktonic, cutoff for positive-scoring molecules 3-fold increase, read-out: AK-based Prestwick Library Screening Results, E. cloacae (fold increase in extracellular AK activity)
[8] = planktonic, cutoff for positive-scoring molecules 3-fold increase, read-out: AK-based Prestwick Library Screening Results, E. faecium (fold increase in extracellular AK activity)
[9] = planktonic, cutoff for positive-scoring molecules 3-fold increase, read-out: AK-based Prestwick Library Screening Results, E. coli (fold increase in extracellular AK activity)
[10] = planktonic, cutoff for positive-scoring molecules 3-fold increase, read-out: AK-based Prestwick Library Screening Results, P. aeruginosa (fold increase in extracellular AK activity)

Compound: C=CC1=C(C(=O)O)N2C(=O)[C@@H](NC(=O)/C(=N\OCC(=O)O)c3csc(N)n3)[C@H]2SC1 [Cefixime]
- fold induction at 50 µM (K. pneumoniae; planktonic, cutoff for positive 3-fold increase, read-out: AK-based Prestwick Library Screening Results, K. pneumoniae (fold increase in extracellular AK activity)): 4.6
- fold induction at 50 µM ([1]; planktonic, cutoff for positive 3-fold increase, read-out: AK-based Prestwick Library Screening Results, S. aureus (fold increase in extracellular AK activity)): 1.2
- fold induction at 50 µM ([2]; planktonic, cutoff for positive 3-fold increase, read-out: AK-based Prestwick Library Screening Results, A. baumannii (fold increase in extracellular AK activity)): 1.8
- fold induction at 50 µM (E. cloacae; planktonic, cutoff for positive 3-fold increase, read-out: AK-based Prestwick Library Screening Results, E. cloacae (fold increase in extracellular AK activity)): 21.9
- fold induction at 50 µM (E. faecium; planktonic, cutoff for positive 3-fold increase, read-out: AK-based Prestwick Library Screening Results, E. faecium (fold increase in extracellular AK activity)): 1.1
- fold induction at 50 µM (E. coli; planktonic, cutoff for positive 3-fold increase, read-out: AK-based Prestwick Library Screening Results, E. coli (fold increase in extracellular AK activity)): 18.6
- fold induction at 50 µM (P. aeruginosa; planktonic, cutoff for positive 3-fold increase, read-out: AK-based Prestwick Library Screening Results, P. aeruginosa (fold increase in extracellular AK activity)): 11.7

Compound: CC1COc2c(N3CCN(C)CC3)c(F)cc3c(=O)c(C(=O)O)cn1c23 (stereo not drawn) [Ofloxacin]
- fold induction at 50 µM (K. pneumoniae; planktonic K. pneumoniae, 384-well, cutoff for positive-scoring molecules 3-fold increase, read-out: AK-based Prestwick Library Screening Results: K. pneumoniae (increase in extracellular AK activity)): 1
- fold induction at 50 µM ([1]; planktonic S. aureus, 384-well, cutoff for positive-scoring molecules 3-fold increase, read-out: AK-based Prestwick Library Screening Results: S. aureus (increase in extracellular AK activity)): 2.8
- fold induction at 50 µM ([2]; planktonic A. baumannii, 384-well, cutoff for positive-scoring molecules 3-fold increase, read-out: AK-based Prestwick Library Screening Results: A. baumannii (increase in extracellular AK activity)): 3.7
- fold induction at 50 µM (E. cloacae; planktonic E. cloacae, 384-well, cutoff for positive-scoring molecules 3-fold increase, read-out: AK-based Prestwick Library Screening Results: E. cloacae (increase in extracellular AK activity)): 4.1
- fold induction at 50 µM (E. faecium; planktonic E. faecium, 384-well, cutoff for positive-scoring molecules 3-fold increase, read-out: AK-based Prestwick Library Screening Results: E. faecium (increase in extracellular AK activity)): 1.4
- fold induction at 50 µM (E. coli; planktonic E. coli, 384-well, cutoff for positive-scoring molecules 3-fold increase, read-out: AK-based Prestwick Library Screening Results: E. coli (increase in extracellular AK activity)): 15.7
- fold induction at 50 µM (P. aeruginosa; planktonic P. aeruginosa, 384-well, cutoff for positive-scoring molecules 3-fold increase, read-out: AK-based Prestwick Library Screening Results: P. aeruginosa (increase in extracellular AK activity)): 20

Compound: CCN(CC)C(=S)SSC(=S)N(CC)CC [Disulfiram]
- fold induction at 50 µM (K. pneumoniae; 384-well format, […], read-out: AK-based Prestwick Library Screening Results, K. pneumoniae (increase in extracellular AK activity)): 0.6
- fold induction at 50 µM ([1]; 384-well format, […], read-out: AK-based Prestwick Library Screening Results, S. aureus (increase in extracellular AK activity)): 1.1
- fold induction at 50 µM ([2]; 384-well format, […], read-out: AK-based Prestwick Library Screening Results, A. baumannii (increase in extracellular AK activity)): 1
- fold induction at 50 µM (E. cloacae; 384-well format, […], read-out: AK-based Prestwick Library Screening Results, E. cloacae (increase in extracellular AK activity)): 0.7
- fold induction at 50 µM (E. faecium; 384-well format, […], read-out: AK-based Prestwick Library Screening Results, E. faecium (increase in extracellular AK activity)): 1
- fold induction at 50 µM (E. coli; 384-well format, […], read-out: AK-based Prestwick Library Screening Results, E. coli (increase in extracellular AK activity)): 0.9
- fold induction at 50 µM (P. aeruginosa; 384-well format, […], read-out: AK-based Prestwick Library Screening Results, P. aeruginosa (increase in extracellular AK activity)): 0.6

Compound: C[C@]12CCC(=O)C=C1CC[C@@H]1[C@@H]2C(=O)C[C@]2(C)C(=O)CC[C@@H]12 [Adrenosterone]
- AK-based Prestwick Library Screening Results, K. pneumoniae (fold increase in extracellular AK activity) (K. pneumoniae; planktonic, […]): 0.6
- AK-based Prestwick Library Screening Results, S. aureus (fold increase in extracellular AK activity) ([1]; planktonic, […]): 0.6
- AK-based Prestwick Library Screening Results, A. baumannii (fold increase in extracellular AK activity) ([2]; planktonic, […]): 0.8
- AK-based Prestwick Library Screening Results, E. cloacae (fold increase in extracellular AK activity) (E. cloacae; planktonic, […]): 1.2
- AK-based Prestwick Library Screening Results, E. faecium (fold increase in extracellular AK activity) (E. faecium; planktonic, […]): 0.9
- AK-based Prestwick Library Screening Results, E. coli (fold increase in extracellular AK activity) (E. coli; planktonic, […]): 0.7
- AK-based Prestwick Library Screening Results, P. aeruginosa (fold increase in extracellular AK activity) (P. aeruginosa; planktonic, […]): 0.6

Compound: CN1C(=O)OC(C)(C)C1=O [Trimethadione]
- fold induction at 50 µM (K. pneumoniae; planktonic K. pneumoniae, cutoff for positive-scoring molecules 3-fold increase, read-out: AK-based Prestwick Library Screening Results, K. pneumoniae (increase in extracellular AK activity)): 0.7
- fold induction at 50 µM ([1]; planktonic S. aureus, cutoff for positive-scoring molecules 3-fold increase, read-out: AK-based Prestwick Library Screening Results, S. aureus (increase in extracellular AK activity)): 0.7
- fold induction at 50 µM ([2]; planktonic A. baumannii, cutoff for positive-scoring molecules 3-fold increase, read-out: AK-based Prestwick Library Screening Results, A. baumannii (increase in extracellular AK activity)): 0.9
- fold induction at 50 µM (E. cloacae; planktonic E. cloacae, cutoff for positive-scoring molecules 3-fold increase, read-out: AK-based Prestwick Library Screening Results, E. cloacae (increase in extracellular AK activity)): 1.4
- fold induction at 50 µM (E. faecium; planktonic E. faecium, cutoff for positive-scoring molecules 3-fold increase, read-out: AK-based Prestwick Library Screening Results, E. faecium (increase in extracellular AK activity)): 0.9
- fold induction at 50 µM (E. coli; planktonic E. coli, cutoff for positive-scoring molecules 3-fold increase, read-out: AK-based Prestwick Library Screening Results, E. coli (increase in extracellular AK activity)): 1
- fold induction at 50 µM (P. aeruginosa; planktonic P. aeruginosa, cutoff for positive-scoring molecules 3-fold increase, read-out: AK-based Prestwick Library Screening Results, P. aeruginosa (increase in extracellular AK activity)): 0.8

Compound: Trimipramine maleate salt
- AK-based Prestwick Library Screening Results, K. pneumoniae (fold increase in extracellular AK activity) (K. pneumoniae; [3]): 0.6
- AK-based Prestwick Library Screening Results, S. aureus (fold increase in extracellular AK activity) [1, 3]: 0.5
- AK-based Prestwick Library Screening Results, A. baumannii (fold increase in extracellular AK activity) [2, 3]: 0.6
- AK-based Prestwick Library Screening Results, E. cloacae (fold increase in extracellular AK activity) (E. cloacae; [3]): 0.6
- AK-based Prestwick Library Screening Results, E. faecium (fold increase in extracellular AK activity) (E. faecium; [3]): 0.9
- AK-based Prestwick Library Screening Results, E. coli (fold increase in extracellular AK activity) (E. coli; [3]): 0.6
- AK-based Prestwick Library Screening Results, P. aeruginosa (fold increase in extracellular AK activity) (P. aeruginosa; [3]): 0.6

Compound: CCCNC(C)(C)COC(=O)c1ccccc1 [Meprylcaine hydrochloride]
- fold induction at 50 µM (K. pneumoniae; planktonic K. pneumoniae, positive cutoff 3-fold increase, read-out: AK-based Prestwick library screening result, K. pneumoniae (fold increase in extracellular AK activity)): 0.7
- fold induction at 50 µM ([1]; planktonic S. aureus, positive cutoff 3-fold increase, read-out: AK-based Prestwick library screening result, S. aureus (fold increase in extracellular AK activity)): 0.6
- fold induction at 50 µM ([2]; planktonic A. baumannii, positive cutoff 3-fold increase, read-out: AK-based Prestwick library screening result, A. baumannii (fold increase in extracellular AK activity)): 0.8
- fold induction at 50 µM (E. cloacae; planktonic E. cloacae, positive cutoff 3-fold increase, read-out: AK-based Prestwick library screening result, E. cloacae (fold increase in extracellular AK activity)): 0.8
- fold induction at 50 µM (E. faecium; planktonic E. faecium, positive cutoff 3-fold increase, read-out: AK-based Prestwick library screening result, E. faecium (fold increase in extracellular AK activity)): 0.9
- fold induction at 50 µM (E. coli; planktonic E. coli, positive cutoff 3-fold increase, read-out: AK-based Prestwick library screening result, E. coli (fold increase in extracellular AK activity)): 0.9
- fold induction at 50 µM (P. aeruginosa; planktonic P. aeruginosa, positive cutoff 3-fold increase, read-out: AK-based Prestwick library screening result, P. aeruginosa (fold increase in extracellular AK activity)): 0.9

Compound: CC(C)(C(=O)c1cccnc1)c1cccnc1 [Metyrapone]
- fold induction at 50 µM (K. pneumoniae; [4]): 0.7
- fold induction at 50 µM [1, 5]: 0.8
- fold induction at 50 µM [2, 6]: 1
- fold induction at 50 µM (E. cloacae; [7]): 1.2
- fold induction at 50 µM (E. faecium; [8]): 0.8
- fold induction at 50 µM (E. coli; [9]): 0.9
- fold induction at 50 µM (P. aeruginosa; [10]): 1

Compound: NC(=O)c1ccc[n+]([C@@H]2O[C@H](COP(=O)([O-])OP(=O)(O)OC[C@H]3O[C@@H](n4cnc5c(N)ncnc54)[C@H](O)[C@@H]3O)[C@@H](O)[C@H]2O)c1 [Nadide]
- fold induction at 50 µM (K. pneumoniae; [4]): 0.7
- fold induction at 50 µM [1, 5]: 0.6
- fold induction at 50 µM [2, 6]: 0.8
- fold induction at 50 µM (E. cloacae; [7]): 0.9
- fold induction at 50 µM (E. faecium; [8]): 0.9
- fold induction at 50 µM (E. coli; [9]): 0.9
- fold induction at 50 µM (P. aeruginosa; [10]): 0.8
